pEC50, pIC50: −log10 of the molar value. Values after ≈ are worked out from the molar mass of the structure shown.

Data set [1] can be described thus: Suppression of spontaneous calcium oscillation frequency in C57Bl/6J mouse primary neocortical neuron incubated for 15 mins by Fluo-4 dye based assay. The format is functional, cell-based. To be noted: 0.25 h.
Data set [2] is described as follows: Suppression of spontaneous calcium oscillation amplitude in C57Bl/6J mouse primary neocortical neuron incubated for 15 mins by Fluo-4 dye based assay. The format is functional, cell-based. To be noted: 0.25 h.
The nature of data set [3]: Suppression of spontaneous calcium oscillation amplitude in 4-AP-induced C57Bl/6J mouse primary neocortical neuron incubated for 25 mins by Fluo-4 dye based assay. The format is functional, cell-based.
Data set [4] is described as follows: Suppression of spontaneous calcium oscillation frequency in 4-AP-induced C57Bl/6J mouse primary neocortical neuron incubated for 25 mins by Fluo-4 dye based assay. The format is functional, cell-based.
Data set [5] deals with Phosphotyrosine-protein phosphatase PTPB (Mycobacterium tuberculosis, UniProt P96830). In words: Inhibition of N-terminal His6-tagged full-length Mycobacterium tuberculosis H37Rv PTPB expressed in Escherichia coli BL21 (DH3) using fluorogenic phosphatase substrate by fluorescence based assay.
A short description of data set [6]: Hemolytic activity against human erythrocytes assessed as induction of cell lysis. It is filed as toxicity, cell-based, Erythrocyte.
Data set [7] deals with NCI-H460. Briefly: Cytotoxicity against human NCI-H460 cells assessed as cell growth inhibition incubated for 48 hrs by MTT assay. It is filed as functional, cell-based. To be noted: NCI-H460, 48 h. For orientation: Formazan colour is commonly taken as a measure of viable cells.
Data set [8] concerns NCI-H460. In words: Induction of apoptosis in human NCI-H460 cells assessed as fold increase in […] at 35 uM incubated for 48 hrs by Annexin V-FITC/PI staining based flow cytometry. The format is functional. (In general: In flow cytometry, cells or beads pass a laser one at a time.)
For data set [9], the system named is SMMC-7721. Briefly: Cytotoxicity against human SMMC-7721 cells assessed as cell growth inhibition incubated for 48 hrs by CCK8 assay. To be noted: SMMC-7721, 48 h. It is filed as functional, cell-based.
For data set [10], the system named is SMMC-7721. In words: Cytotoxicity against human SMMC-7721 cells assessed as cell growth inhibition incubated for 24 hrs by CCK8 assay. The format is functional, cell-based. To be noted: SMMC-7721, 24 h.
In data set [11] the test system is HL-60. In words: Cytotoxicity against human HL-60 cells assessed as cell growth inhibition. The format is functional, cell-based.
The test system of data set [12] is Bel-7402. In words: Cytotoxicity against human Bel-7402 cells assessed as cell growth inhibition. It is filed as functional, cell-based.
Data set [13] deals with Candida parapsilosis. In words: Antimicrobial activity against Candida parapsilosis assessed as microbial growth inhibition micro broth dilution assay. It is filed as functional, organism-based. The settings on record: Lodderomyces parapsilosis.
Data set [14] deals with Staphylococcus aureus. In words: Antimicrobial activity against Staphylococcus aureus assessed as microbial growth inhibition micro broth dilution assay. It is filed as functional, organism-based.
Data set [15] deals with Bacillus subtilis. Briefly: Antimicrobial activity against Bacillus subtilis assessed as microbial growth inhibition micro broth dilution assay. It is filed as functional, organism-based. On the technique in general: In broth dilution the organism is exposed to a series of concentrations in liquid medium.
Data set [16] relates to Candida albicans. Briefly: Antimicrobial activity against Candida albicans assessed as microbial growth inhibition micro broth dilution assay. The format is functional, organism-based.
Data set [17] relates to Cryptococcus neoformans. In words: Antimicrobial activity against Cryptococcus neoformans assessed as microbial growth inhibition micro broth dilution assay. It is filed as functional, organism-based.
For data set [18], the system named is MCF7. In words: Antitumor activity against human MCF7 cells xenografted in athymic nude BALB/c mouse assessed as tumor growth inhibition at 5 mg/kg, iv measured every 4 days for 40 days by caliper method relative to control. To be noted: MCF7, 960 h, time 40 day, read-out: TGI. The format is functional.
Data set [19] concerns MCF7. Briefly: Antitumor activity against human MCF7 cells xenografted in athymic nude BALB/c mouse assessed as tumor growth inhibition at 10 mg/kg, iv measured every 4 days for 40 days by caliper method relative to control. The format is functional. The settings on record: MCF7, 960 h, time 40 day, read-out: TGI.
For data set [20], the system named is MCF7. Briefly: Antitumor activity against human MCF7 cells xenografted in athymic nude BALB/c mouse assessed as tumor growth inhibition at 20 mg/kg, iv measured every 4 days for 40 days by caliper method relative to control. It is filed as functional. The settings on record: MCF7, 960 h, time 40 day, read-out: TGI.
Data set [21] concerns MCF7. In words: Antitumor activity against Adriamycin-resistant human MCF7 cells xenografted in athymic nude BALB/c mouse assessed as tumor growth inhibition at 5 mg/kg, iv measured every 4 days for 40 days by caliper method in presence of Adriamycin relative to control. The format is functional. The settings on record: MCF7, 960 h, time 40 day, read-out: TGI.
The subject of data set [22] is MCF7. Briefly: Antitumor activity against human MCF7 cells xenografted in athymic nude BALB/c mouse assessed as tumor growth inhibition at 20 mg/kg, iv measured every 4 days for 40 days by caliper method relative to PTX. It is filed as functional. To be noted: MCF7, 960 h, time 40 day, read-out: TGI.
Data set [23] deals with MCF7. Briefly: Antitumor activity against Adriamycin-resistant human MCF7 cells xenografted in athymic nude BALB/c mouse assessed as tumor growth inhibition at 5 mg/kg, iv measured every 4 days for 40 days by caliper method relative to control. The format is functional. To be noted: MCF7, 960 h, time 40 day, read-out: TGI.
Data set [24] has as its system Ceratobasidium cornigerum. In words: Antimicrobial activity against Ceratobasidium cornigerum assessed as microbial growth inhibition. The format is functional.
Data set [25] relates to Edwardsiella tarda. In words: Antimicrobial activity against Edwardsiella tarda assessed as microbial growth inhibition. It is filed as functional.
The subject of data set [26] is NCI-H446. Briefly: Cytotoxicity against human NCI-H446 assessed as inhibition of cell viability incubated for 48 hrs by MTT assay. It is filed as functional, cell-based. The settings on record: NCI-H446, 48 h.
Data set [27] concerns NCI-H460. In words: Cytotoxicity against human NCI-H460 assessed as inhibition of cell viability incubated for 48 hrs by MTT assay. It is filed as functional, cell-based. To be noted: NCI-H460, 48 h.

Phosphotyrosine-protein phosphatase PTPB, sequence (P96830 whole entry): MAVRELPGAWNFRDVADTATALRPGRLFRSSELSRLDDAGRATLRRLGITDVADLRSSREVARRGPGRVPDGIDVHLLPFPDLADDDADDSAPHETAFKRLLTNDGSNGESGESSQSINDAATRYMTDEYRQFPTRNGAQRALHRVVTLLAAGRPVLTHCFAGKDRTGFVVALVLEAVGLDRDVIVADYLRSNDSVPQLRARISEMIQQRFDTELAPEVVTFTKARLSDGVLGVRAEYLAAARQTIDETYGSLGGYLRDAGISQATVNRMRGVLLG

A word on the pIC50: it is the IC50 on a negative log10 scale, so that one unit is a factor of ten. For `C=C1CC[C@H]2C(C)(C)[C@@H](O)CC[C@]2(C)[C@H]1CC(=O)[C@]1(O)C=C(CSC[C@H](O)C(=O)OC)C(=O)C1`, the negative-log IC50 (pIC50) in data set [1] was 5.49; in [2] it was 5.74; in [3] it was 5.34; in data set [4], 5.00.

In turn, `CC(C)[C@H]1CC[C@@]2(C)CC[C@]3(CO)CC4=C(C(=O)O)CC[C@H]4[C@]4(C)C[C@@H]4[C@H]3[C@H]12` had a pIC50 in data set [5] of 4.74.

By pEC50 is commonly meant the EC50 on a negative log10 scale, so that one unit is a factor of ten. Turning to `Cc1cc2c(c(=O)o1)C[C@@H]1[C@@]3(C)[C@H](O)CC(=O)OC(C)(C)[C@@H]3[C@H](O)C[C@@]1(C)O2`, the pEC50 in [6] is 2.94.

For `C[C@]12C3=CC(=O)OCC3=C[C@H]3OC(=O)[C@@](C)(C=C[C@H]1O)[C@H]32` [ASPEROLIDE A], the pIC50 in data set [7] is 4.75. Moreover, the “fold change (FC)” value in data set [8] is given as 2.9.

Consider `C[C@@]12C[C@@H](O)C[C@]3(C)C4=CC(=O)OCC4=C[C@@H](OC1=O)[C@@H]23` [WENTILACTONE B], for which the pIC50 in data set [9] was 4.72; in [10], 4.51.

Turning to `C[C@@H]1C=CC(=O)[C@@]2(C)CC[C@@H]3[C@@H]4[C@@](C)(CC[C@@]4(C)CO)C[C@@]132`, the results for the pIC50 in data set [11] and in data set [12] were 6.01 and 7.42, respectively.

By IC50 is commonly meant the concentration that inhibits the measured activity by half. On to `CC1=CC[C@@](O)([C@@]2(C)CCC(=O)O2)C[C@@H]1O`, for which the IC50 in data set [13], in [14], in data set [15], in data set [16] and in [17] was 3 µg/mL throughout.

Take `CO[C@H]1O[C@@]2(OC)C[C@@](C)(O)[C@H]3C[C@@]4(C)CC[C@H]([C@@H](C)/C=C\C=C(C)C)[C@@H]4C/C=C/1[C@H]32` [OPHIOBOLIN O]: the inhibition in vivo at 5 mg/kg in [18] worked out at 35%; in data set [21] it was 71%; in data set [23], 23%. The inhibition in vivo at 10 mg/kg in data set [19] came to 46%. In addition, the inhibition in vivo at 20 mg/kg stood at 69% in data set [20] and 73% in data set [22].

As a reminder, the MIC is the least concentration at which growth counts as inhibited. In the case of `C=C(C)[C@H]1[C@H](OC(C)=O)C[C@H](C)[C@@]12CC=C(C)[C@@H](OC(=O)CCCCCCC/C=C\C/C=C\CCCCC)C2`, the figures for the MIC in data set [24] and in data set [25] were 0.5 µg/mL (≈ 0.925 µM) and 0.25 µg/mL (≈ 0.462 µM), respectively.

Regarding `C[C@@]12C3=CC(=O)OCC3=C[C@H]3OC(=O)[C@](C)([C@H]31)[C@@H](O)[C@H]1O[C@H]12` [WENTILACTONE A], the pIC50 was 5.72 in data set [26] and 5.25 in data set [27].

Source of the values: ChEMBL document CHEMBL5104094, “Chemistry, biosynthesis and biological activity of terpenoids and meroterpenoids in bacteria and fungi isolated from different marine habitats” (Eur J Med Chem, 2021).
